Data reported in patent publication US20060160070A1, “Association-based epitome design” (Microsoft Corporation, priority 2004, published 2006).

Legend:
HLA A*0301 [1] = target: T1, HLA A*0301 (Homo sapiens, UniProt P04439); assay: ITOPIA peptide binding assay; conditions: 1.11×10^−4M of peptide
T1 construct: purchased
Procedure: (§1) Peptide binding, off-rate and affinity were measured according to the protocols described in the ITOPIA Epitope Discovery System Customer Guide. To conduct the experiments, ninety-six (96) micro-titer plates coated with MHC molecules representing the HLA alleles listed in Table 9 were used to identify candidate peptides. Determinations were performed in duplicate using an ELISA plate reader. The peptide binding assay used measures the ability of individual peptides to bind to the HLA molecules under standardized optimal binding conditions. The assay was performed for all the test peptides across the selected HLA alleles. The test peptides identified as “binders” were characterized further in terms of affinity and dissociation experiments. The off-rate assay used evaluates the dissociation of previously bound peptide at defined time points (expressed as the t1/2 value). The affinity assay used measures the relative binding affinities for the MHC molecules determined by incubating candidate peptides identified in the initial peptide binding assay at increasing concentrations (expressed as quantity of peptide needed to achieve 50% binding or ED50 value).
(§2) The binding of the test peptides (Table 8) to the HLA molecules (Table 9) was performed at a concentration of 1.11×10^−4M of peptide under optimal, standardized test conditions. A control peptide was run in parallel on the same plate and at the same concentration as the test peptides. […] The level of binding is expressed as a percent of positive control peptide binding for each allele.

HLA A*0101 [2] = target: T2, HLA A*0101 (Homo sapiens, UniProt P04439, A114D/A174V/A182V/D101N/D185E/E176A/E190D/L180R/Q94H/R68K/S129P/T187R/V100A/V91M/W191G); assay: ITOPIA peptide binding assay; conditions: 1.11×10^−4M of peptide
T2 construct: purchased
Procedure: as §1, §2

HLA A*0201 [3] = target: T3, HLA A*0201 (Homo sapiens, UniProt P04439, D140Y/D185E/D98H/E176V/E277Q/G131W/G231S/I119V/I121R/I166T/I218V/L300P/L318F/N151K/N90K/P208A/P217A/Q86G/Q94H/R138H/R169H/T345S); assay: ITOPIA peptide binding assay; conditions: 1.11×10^−4M of peptide
Procedure: as §1, §2

HLA A*2402 [4] = target: T4, HLA A*2402 (Homo sapiens, UniProt P04439, D101N/D140Y/D185E/E176V/E190D/F33S/G103R/G107R/I119L/I121M/I306V/K335N/L105A/L180Q/L300P/N151K/N90K/Q86E/Q94H/R106L/R138H/R89G/T104I/T345S/V100E/W191G/Y123F); assay: ITOPIA peptide binding assay; conditions: 1.11×10^−4M of peptide
Procedure: as §1, §2

HLA B*0801 [5] = target: T5, HLA B*0801 (Homo sapiens, UniProt P01889, A93T/A95T/D138N/E176V/E187T/K202T/Q94N/R180D/S35A/V36M/Y33D/Y91F); assay: ITOPIA peptide binding assay; conditions: 1.11×10^−4M of peptide
T5 construct: purchased
Procedure: as §1, §2

HLA A*1101 [6] = target: T6, HLA A*1101 (Homo sapiens, UniProt P04439, A114D/D185E/E176A/F33Y/L180Q/S129P/T187R); assay: ITOPIA peptide binding assay; conditions: 1.11×10^−4M of peptide
T6 construct: purchased
Procedure: as §1, §2

HLA B*0702 [7] = target: T7, HLA B*0702 (Homo sapiens, UniProt P01889); assay: ITOPIA peptide binding assay; conditions: 1.11×10^−4M of peptide
T7 construct: purchased
Procedure: as §1, §2

HLA B*1501 [8] = target: T8, HLA B*1501 (Homo sapiens, UniProt P01889, A329T/A93T/A95T/C349S/D201E/D98Y/E187L/E204Q/E69M/E70A/K202T/N87E/Q94N/R155S/R180W/S121R/S35A/S48A/V306I/V36M/Y140S/Y91S); assay: ITOPIA peptide binding assay; conditions: 1.11×10^−4M of peptide
T8 construct: purchased
Procedure: as §1, §2

HLA A*0301 [9] = target: T1, HLA A*0301; assay: Multi-parametric analysis iScore; format: binding; set-up: scale not given here; conditions: index integrating t1/2 and ED50
Procedure: (§3) Multi-parametric analysis was performed to integrate the half-life (t½) and ED50 parameters in an index (iScore). The iScore (Table 13) reflects the capability of a peptide to reconstitute with MHC molecules in a stable complex, defining its overall level of binding.

HLA A*0101 [10] = target: T2, HLA A*0101; assay: Multi-parametric analysis iScore; format: binding; set-up: scale not given here; conditions: index integrating t1/2 and ED50
Procedure: as §3

HLA A*0201 [11] = target: T3, HLA A*0201; assay: Multi-parametric analysis iScore; format: binding; set-up: scale not given here; conditions: index integrating t1/2 and ED50
Procedure: as §3

HLA A*2402 [12] = target: T4, HLA A*2402; assay: Multi-parametric analysis iScore; format: binding; set-up: scale not given here; conditions: index integrating t1/2 and ED50
Procedure: as §3

HLA B*0801 [13] = target: T5, HLA B*0801; assay: Multi-parametric analysis iScore; format: binding; set-up: scale not given here; conditions: index integrating t1/2 and ED50
Procedure: as §3

HLA A*1101 [14] = target: T6, HLA A*1101; assay: Multi-parametric analysis iScore; format: binding; set-up: scale not given here; conditions: index integrating t1/2 and ED50
Procedure: as §3

HLA B*0702 [15] = target: T7, HLA B*0702; assay: Multi-parametric analysis iScore; format: binding; set-up: scale not given here; conditions: index integrating t1/2 and ED50
Procedure: as §3

HLA B*1501 [16] = target: T8, HLA B*1501; assay: Multi-parametric analysis iScore; format: binding; set-up: scale not given here; conditions: index integrating t1/2 and ED50
Procedure: as §3

HLA A*0301 [17] = target: T1, HLA A*0301; assay: ITOPIA off-rate assay; format: binding; conditions: 37° C., one-phase exponential decay
Procedure: as §1
(§4) The peptides initially identified as binders were evaluated for stability based on their ability to remain bound to MHC molecules at 37° C. at time points 0, 0.5, 1, 1.5, 2, 4, 6 and 8 hours. […] The values obtained for each time point (in duplicate) are expressed (Table 11) as a percentage of the positive control. To calculate the t1/2 and goodness-of-fit, as measured by r^2, for each peptide, a one-phase exponential decay curve, with a plateau given equal to 0, was generated using […] PRISM software.

HLA A*0201 [18] = target: T3, HLA A*0201; assay: ITOPIA off-rate assay; format: binding; conditions: 37° C., one-phase exponential decay
Procedure: as §1, §4

HLA A*1101 [19] = target: T6, HLA A*1101; assay: ITOPIA off-rate assay; format: binding; conditions: 37° C., one-phase exponential decay
Procedure: as §1, §4

HLA B*0801 [20] = target: T5, HLA B*0801; assay: ITOPIA off-rate assay; format: binding; conditions: 37° C., one-phase exponential decay
Procedure: as §1, §4

HLA B*0702 [21] = target: T7, HLA B*0702; assay: ITOPIA off-rate assay; format: binding; conditions: 37° C., one-phase exponential decay
Procedure: as §1, §4

HLA B*1501 [22] = target: T8, HLA B*1501; assay: ITOPIA off-rate assay; format: binding; conditions: 37° C., one-phase exponential decay
Procedure: as §1, §4

target cells = conditions: in vitro; compared with consensus epitope; cited from earlier work
HLA A*2402 [23] = target: T4, HLA A*2402; assay: ITOPIA off-rate assay; format: binding; conditions: 37° C., one-phase exponential decay
Procedure: as §1, §4

Sequence	level of binding, percent of positive control peptide binding (HLA A*0301 [1])	level of binding, percent of positive control peptide binding (HLA A*0101 [2])	level of binding, percent of positive control peptide binding (HLA A*0201 [3])	level of binding, percent of positive control peptide binding (HLA A*2402 [4])	level of binding, percent of positive control peptide binding (HLA B*0801 [5])	level of binding, percent of positive control peptide binding (HLA A*1101 [6])	level of binding, percent of positive control peptide binding (HLA B*0702 [7])	level of binding, percent of positive control peptide binding (HLA B*1501 [8])	iScore (HLA A*0301 [9])	iScore (HLA A*0101 [10])	iScore (HLA A*0201 [11])	iScore (HLA A*2402 [12])	iScore (HLA B*0801 [13])	iScore (HLA A*1101 [14])	iScore (HLA B*0702 [15])	iScore (HLA B*1501 [16])	A*0201 t1/2 (HLA A*0201 [18])	A*1101 t1/2 (HLA A*1101 [19])	B*0801 t1/2 (HLA B*0801 [20])	B*0702 t1/2 (HLA B*0702 [21])	also measured
KLAGRWPVK [compound 71]	114% of positive control	0% of positive control	26% of positive control	11% of positive control	4% of positive control	160% of positive control	0% of positive control	2% of positive control	0.606	0	0.084	0	0	0.834	0	0	1.3 h	2.6 h			A*0301 t1/2 (HLA A*0301 [17]): 4.6 h
KLAGRWPVT [compound 157]	9% of positive control	2% of positive control	51% of positive control	8% of positive control	4% of positive control	19% of positive control	3% of positive control	6% of positive control	0	0	0.129	0	0	0.039	0	0	1.1 h	1.6 h			
RGRQKVVSL [compound 68]	0% of positive control	0% of positive control	5% of positive control	17% of positive control	73% of positive control	0% of positive control	96% of positive control	55% of positive control	0	0	0	0	0.100	0	0.307	0.106			1.2 h	1.1 h	B*1501 t1/2 (HLA B*1501 [22]): 3.5 h
TAFTIPST																					increase in the peptide concentration required to sensitize target cells for 50% lysis (SD50) by CTLs (target cells): hundred-fold increase
RGRQKVVSI [compound 153]	0% of positive control	0% of positive control	6% of positive control	29% of positive control	71% of positive control	6% of positive control	88% of positive control	7% of positive control	0	0	0	0.050	0.165	0	0.271	0			1.2 h	1.3 h	A*2402 t1/2 (HLA A*2402 [23]): 1.8 h
